Values after ≈ are worked out from the molar mass of the structure shown. Active and inactive are the calls of the source. The calls are words filed in the database; no cut-off is given here.
Target: T1, Glutaminase kidney isoform, mitochondrial (Homo sapiens, UniProt O94925)
T1 sequence (O94925 whole entry): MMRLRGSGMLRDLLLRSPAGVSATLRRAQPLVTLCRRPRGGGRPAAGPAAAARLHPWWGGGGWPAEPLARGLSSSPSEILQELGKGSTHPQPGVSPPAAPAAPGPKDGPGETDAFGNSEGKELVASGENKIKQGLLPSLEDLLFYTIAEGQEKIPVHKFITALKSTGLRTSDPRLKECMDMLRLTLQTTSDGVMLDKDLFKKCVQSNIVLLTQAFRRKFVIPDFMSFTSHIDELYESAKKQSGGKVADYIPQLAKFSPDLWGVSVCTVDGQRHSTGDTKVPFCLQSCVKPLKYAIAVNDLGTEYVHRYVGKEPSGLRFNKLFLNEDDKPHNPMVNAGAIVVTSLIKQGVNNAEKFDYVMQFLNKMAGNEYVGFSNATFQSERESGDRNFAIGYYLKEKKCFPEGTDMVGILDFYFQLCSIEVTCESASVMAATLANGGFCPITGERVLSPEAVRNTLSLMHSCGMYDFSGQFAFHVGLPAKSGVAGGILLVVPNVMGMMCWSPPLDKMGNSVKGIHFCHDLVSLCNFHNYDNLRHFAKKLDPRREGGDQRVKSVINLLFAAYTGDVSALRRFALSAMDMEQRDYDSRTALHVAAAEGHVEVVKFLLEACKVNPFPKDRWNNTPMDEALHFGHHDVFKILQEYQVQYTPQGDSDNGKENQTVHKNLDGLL
Test: Inhibition of human kidney type glutaminase (124 to 669 residues) using L-[3H]-glutamine as substrate after 45 mins by topcount method
Conditions: not given

IC50 [nM]	SMILES
540	CC(=O)Oc1ccc(CC(=O)Nc2nnc(CCCCc3nnc(NC(=O)Cc4ccccc4)s3)s2)cc1
13000	COC(=O)c1ccc(CC(=O)Nc2nnc(CCCCc3nnc(NC(=O)Cc4ccccc4)s3)s2)cc1
120	CC(=O)Oc1ccc(CC(=O)Nc2nnc(CCCCc3nnc(NC(=O)Cc4cccnc4)s3)s2)cc1
3000	CN(C)c1ccc(CC(=O)Nc2nnc(CCCCc3nnc(NC(=O)Cc4ccccc4)s3)s2)cc1
170	O=C(Cc1ccccc1)Nc1nnc(CCCCc2nnc(NC(=O)Cc3ccc(Br)cn3)s2)s1
140	O=C(Cc1ccc(O)cc1)Nc1nnc(CCCCc2nnc(NC(=O)Cc3cccnc3)s2)s1
450	CC(C)(C)OC(=O)Nc1ccc(CC(=O)Nc2nnc(CCCCc3nnc(NC(=O)Cc4ccccc4)s3)s2)cc1
210	COc1ccc(CC(=O)Nc2nnc(CCCCc3nnc(NC(=O)Cc4ccccc4)s3)s2)cc1
2000	CC(=O)Oc1ccc(CC(=O)Nc2nnc(CCCCc3nnc(NC(=O)Cc4cccc(OC(F)(F)F)c4)s3)s2)cc1
70	O=C(Cc1ccccc1)Nc1nnc(CCCCc2nnc(NC(=O)Cc3ccccn3)s2)s1
1200	CC(=O)Oc1ccc(CC(=O)Nc2nnc(CCCCc3nnc(NC(=O)Cc4ccc(OC(C)=O)cc4)s3)s2)cc1
110	O=C(Cc1ccccc1)Nc1nnc(CCCCc2nnc(NC(=O)Cc3ccc(C(=O)O)cc3)s2)s1
120	O=C(Cc1ccc(O)cc1)Nc1nnc(CCCCc2nnc(NC(=O)Cc3ccc(O)cc3)s2)s1
2300	Nc1ccc(CC(=O)Nc2nnc(CCCCc3nnc(NC(=O)Cc4ccccc4)s3)s2)cc1
70	O=C(Cc1ccccc1)Nc1nnc(CCCCc2nnc(NC(=O)Cc3cccnc3)s2)s1
70	O=C(Cc1ccccc1)Nc1nnc(CCCCc2nnc(NC(=O)Cc3ccc(O)cc3)s2)s1
120	O=C(Cc1ccccc1)Nc1nnc(CCCCc2nnc(NC(=O)Cc3cccc(O)c3)s2)s1
510	O=C(Cc1ccc(O)cc1)Nc1nnc(CCCCc2nnc(NC(=O)Cc3cccc(OC(F)(F)F)c3)s2)s1
380	O=C(Cc1ccccc1)Nc1nnc(CCCCc2nnc(NC(=O)Cc3ccc(Oc4ccccc4)cc3)s2)s1

SMILES	IC50 [nM]
O=C(Cc1ccccc1)Nc1nnc(CCCCc2nnc(NC(=O)Cc3ccc(OCc4ccccc4)cc3)s2)s1	> 25000

Target: T2, Glutaminase kidney isoform, mitochondrial (Homo sapiens) (UniProt O94925)
T2 sequence (whole entry): T1 sequence (O94925 whole entry)
Conditions: not given

TDI	SMILES
inactive	O=C(Cc1ccccc1)Nc1nnc(CCCCc2nnc(NC(=O)Cc3ccc(O)cc3)s2)s1

Test system: not listed separately
Test: Aqueous solubility of the compound in PBS buffer at pH 7.4 at 37 degC after 24 hrs by LC/MS analysis
Format: physicochemical
Conditions: pH 7.4, 24 h

solubility [µg/mL]	SMILES
17 (≈ 33.4 µM)	O=C(Cc1ccccc1)Nc1nnc(CCCCc2nnc(NC(=O)Cc3ccc(O)cc3)s2)s1

From ChEMBL document CHEMBL3813656, “Allosteric Glutaminase Inhibitors Based on a 1,4-Di(5-amino-1,3,4-thiadiazol-2-yl)butane Scaffold” (ACS Med Chem Lett, 2016)
